Remaining binding data for three compounds are collected here from patent US12479847B2 (DANA-FARBER CANCER INSTITUTE, INC., priority 2019, dated 2025).

Like-named read-outs stand apart in the source and are kept apart here.

Common to all, as to assay: KINOMEscan (ScanMAX) kinase profiling
What all share (format): binding

Test [1] has as its target T1, panel of 468 kinases (Homo sapiens, UniProt O75676).
T1 construct: purchased KINOMEscan (ScanMAX) service
The following applies: 1 μM, read-out: % control.

Test [2] addresses T2, panel of 468 kinases (Homo sapiens, UniProt P49840).
T2 construct: purchased KINOMEscan (ScanMAX) service
The conditions noted are these: GSK3A; 1 μM; read-out: % control.

In test [3] the target is T3, panel of 468 kinases (Homo sapiens, UniProt Q13188).
T3 construct: purchased KINOMEscan (ScanMAX) service
T3 sequence (Q13188 1-491): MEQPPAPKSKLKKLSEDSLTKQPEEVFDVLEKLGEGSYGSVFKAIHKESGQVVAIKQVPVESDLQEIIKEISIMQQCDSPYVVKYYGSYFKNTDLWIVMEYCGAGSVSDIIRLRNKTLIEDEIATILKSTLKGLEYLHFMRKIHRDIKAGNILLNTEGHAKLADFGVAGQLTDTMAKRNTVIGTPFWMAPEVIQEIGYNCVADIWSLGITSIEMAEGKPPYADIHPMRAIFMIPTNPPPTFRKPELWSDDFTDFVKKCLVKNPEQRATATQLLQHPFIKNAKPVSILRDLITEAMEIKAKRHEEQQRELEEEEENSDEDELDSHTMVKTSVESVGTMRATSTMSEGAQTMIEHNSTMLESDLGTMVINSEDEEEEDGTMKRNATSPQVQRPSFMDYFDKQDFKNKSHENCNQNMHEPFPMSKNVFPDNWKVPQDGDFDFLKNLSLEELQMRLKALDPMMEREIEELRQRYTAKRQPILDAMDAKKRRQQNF
The conditions noted are these: MST2; 1 μM; read-out: % control.

The target of test [4] is T4, panel of 468 kinases (Homo sapiens, UniProt Q16659).
T4 construct: purchased KINOMEscan (ScanMAX) service
The following applies: ERK3; 1 μM; read-out: % control.

For test [5], the target named is T5, panel of 468 kinases (Homo sapiens, UniProt Q96RR4).
T5 construct: purchased KINOMEscan (ScanMAX) service
The following applies: CAMKK2; 1 μM; read-out: % control.

Test [6] deals with T6, panel of 468 kinases (Homo sapiens, UniProt Q9BZL6).
T6 construct: purchased KINOMEscan (ScanMAX) service
T6 sequence (Q9BZL6 1-878): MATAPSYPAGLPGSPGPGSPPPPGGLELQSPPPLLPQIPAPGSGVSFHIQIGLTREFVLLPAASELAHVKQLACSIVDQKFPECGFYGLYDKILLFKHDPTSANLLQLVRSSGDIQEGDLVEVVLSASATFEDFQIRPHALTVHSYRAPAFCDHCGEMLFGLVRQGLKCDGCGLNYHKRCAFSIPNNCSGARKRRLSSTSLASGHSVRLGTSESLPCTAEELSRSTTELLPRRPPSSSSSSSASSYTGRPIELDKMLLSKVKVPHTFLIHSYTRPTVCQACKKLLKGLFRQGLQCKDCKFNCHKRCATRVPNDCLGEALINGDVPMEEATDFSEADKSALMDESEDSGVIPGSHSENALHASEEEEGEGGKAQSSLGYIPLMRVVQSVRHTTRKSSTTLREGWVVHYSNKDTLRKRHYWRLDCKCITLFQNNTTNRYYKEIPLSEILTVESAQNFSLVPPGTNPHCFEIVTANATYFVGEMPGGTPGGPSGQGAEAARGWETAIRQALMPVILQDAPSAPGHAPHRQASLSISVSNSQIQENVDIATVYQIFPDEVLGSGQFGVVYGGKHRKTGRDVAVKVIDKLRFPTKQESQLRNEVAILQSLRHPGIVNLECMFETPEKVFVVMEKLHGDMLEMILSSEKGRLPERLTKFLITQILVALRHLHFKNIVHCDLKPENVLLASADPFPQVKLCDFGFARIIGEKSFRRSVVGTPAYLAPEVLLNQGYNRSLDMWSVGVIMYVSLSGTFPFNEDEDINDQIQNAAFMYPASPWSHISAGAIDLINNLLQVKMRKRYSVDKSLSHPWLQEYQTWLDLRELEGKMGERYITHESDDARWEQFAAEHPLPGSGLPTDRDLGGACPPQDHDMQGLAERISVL
The conditions noted are these: PRKD2; 1 μM; read-out: % control.

Test [7] has as its target T7, panel of 468 kinases (Homo sapiens, UniProt Q9UK32).
T7 construct: purchased KINOMEscan (ScanMAX) service
The conditions noted are these: 1 μM, read-out: % control.

The target in test [8] is T8, panel of 468 kinases (Homo sapiens, UniProt Q9Y2I7).
T8 construct: purchased KINOMEscan (ScanMAX) service
The conditions noted are these: PIKFYVE; 1 μM; read-out: % control.

Test [9] concerns the target T9, panel of 468 kinases (Homo sapiens, UniProt Q9Y463).
T9 construct: purchased KINOMEscan (ScanMAX) service
The conditions noted are these: DYRK1B; 1 μM; read-out: % control.

T9 sequence (Q9Y463 whole entry): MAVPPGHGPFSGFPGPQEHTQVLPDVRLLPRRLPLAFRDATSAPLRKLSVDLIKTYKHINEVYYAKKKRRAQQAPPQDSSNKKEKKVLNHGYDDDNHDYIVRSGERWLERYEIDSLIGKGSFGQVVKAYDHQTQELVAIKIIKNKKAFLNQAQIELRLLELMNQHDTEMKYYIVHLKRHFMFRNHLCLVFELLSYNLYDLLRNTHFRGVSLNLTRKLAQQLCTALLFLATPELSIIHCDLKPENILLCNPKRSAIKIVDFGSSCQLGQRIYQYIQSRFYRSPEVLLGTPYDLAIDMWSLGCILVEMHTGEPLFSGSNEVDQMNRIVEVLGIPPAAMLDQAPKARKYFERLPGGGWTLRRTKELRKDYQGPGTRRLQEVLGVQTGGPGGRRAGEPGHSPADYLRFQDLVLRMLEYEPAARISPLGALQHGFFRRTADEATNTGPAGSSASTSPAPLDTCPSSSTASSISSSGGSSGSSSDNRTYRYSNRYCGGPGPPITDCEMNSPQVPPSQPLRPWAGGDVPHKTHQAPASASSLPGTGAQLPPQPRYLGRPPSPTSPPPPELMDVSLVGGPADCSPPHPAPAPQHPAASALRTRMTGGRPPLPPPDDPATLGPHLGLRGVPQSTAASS
T7 sequence (Q9UK32 whole entry): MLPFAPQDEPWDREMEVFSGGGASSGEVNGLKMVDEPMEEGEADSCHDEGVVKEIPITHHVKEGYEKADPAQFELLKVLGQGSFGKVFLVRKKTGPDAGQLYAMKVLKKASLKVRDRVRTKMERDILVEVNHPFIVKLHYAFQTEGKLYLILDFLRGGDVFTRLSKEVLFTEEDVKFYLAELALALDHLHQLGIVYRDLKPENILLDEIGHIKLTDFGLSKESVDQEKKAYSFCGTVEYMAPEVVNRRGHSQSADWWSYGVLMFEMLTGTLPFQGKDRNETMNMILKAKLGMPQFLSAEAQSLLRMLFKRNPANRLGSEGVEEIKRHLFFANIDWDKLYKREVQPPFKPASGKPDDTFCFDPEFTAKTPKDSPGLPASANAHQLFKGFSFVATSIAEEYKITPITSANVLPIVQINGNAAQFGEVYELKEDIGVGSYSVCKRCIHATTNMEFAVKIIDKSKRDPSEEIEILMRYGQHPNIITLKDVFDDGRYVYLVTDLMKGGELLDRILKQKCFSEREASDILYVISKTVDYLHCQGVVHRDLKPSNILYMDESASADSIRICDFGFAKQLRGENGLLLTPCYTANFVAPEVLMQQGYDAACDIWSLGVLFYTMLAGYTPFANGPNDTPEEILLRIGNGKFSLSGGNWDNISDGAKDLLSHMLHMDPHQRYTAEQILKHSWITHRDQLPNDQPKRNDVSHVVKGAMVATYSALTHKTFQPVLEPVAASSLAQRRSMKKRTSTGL
T1 sequence (O75676 whole entry): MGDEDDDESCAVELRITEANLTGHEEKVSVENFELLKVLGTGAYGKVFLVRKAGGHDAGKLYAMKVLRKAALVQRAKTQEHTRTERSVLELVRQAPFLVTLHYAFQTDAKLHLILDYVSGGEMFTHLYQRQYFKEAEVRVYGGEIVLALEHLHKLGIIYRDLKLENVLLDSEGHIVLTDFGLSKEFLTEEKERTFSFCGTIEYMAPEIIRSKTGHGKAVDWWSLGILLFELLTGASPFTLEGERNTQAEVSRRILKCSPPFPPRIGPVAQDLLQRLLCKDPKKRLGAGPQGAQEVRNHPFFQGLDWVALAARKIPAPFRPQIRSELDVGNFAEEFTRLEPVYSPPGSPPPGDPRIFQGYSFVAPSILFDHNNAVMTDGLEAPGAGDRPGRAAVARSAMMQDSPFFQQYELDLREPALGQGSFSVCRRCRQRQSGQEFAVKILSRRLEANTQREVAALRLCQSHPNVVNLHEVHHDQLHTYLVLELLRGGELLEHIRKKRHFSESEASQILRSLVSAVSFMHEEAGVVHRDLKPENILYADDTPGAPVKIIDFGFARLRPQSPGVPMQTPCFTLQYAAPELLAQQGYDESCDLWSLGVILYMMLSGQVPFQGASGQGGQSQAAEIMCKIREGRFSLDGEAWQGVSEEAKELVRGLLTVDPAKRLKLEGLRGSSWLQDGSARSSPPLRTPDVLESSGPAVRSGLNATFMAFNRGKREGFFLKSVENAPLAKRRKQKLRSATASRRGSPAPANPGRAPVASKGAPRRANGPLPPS
T2 sequence (P49840 whole entry): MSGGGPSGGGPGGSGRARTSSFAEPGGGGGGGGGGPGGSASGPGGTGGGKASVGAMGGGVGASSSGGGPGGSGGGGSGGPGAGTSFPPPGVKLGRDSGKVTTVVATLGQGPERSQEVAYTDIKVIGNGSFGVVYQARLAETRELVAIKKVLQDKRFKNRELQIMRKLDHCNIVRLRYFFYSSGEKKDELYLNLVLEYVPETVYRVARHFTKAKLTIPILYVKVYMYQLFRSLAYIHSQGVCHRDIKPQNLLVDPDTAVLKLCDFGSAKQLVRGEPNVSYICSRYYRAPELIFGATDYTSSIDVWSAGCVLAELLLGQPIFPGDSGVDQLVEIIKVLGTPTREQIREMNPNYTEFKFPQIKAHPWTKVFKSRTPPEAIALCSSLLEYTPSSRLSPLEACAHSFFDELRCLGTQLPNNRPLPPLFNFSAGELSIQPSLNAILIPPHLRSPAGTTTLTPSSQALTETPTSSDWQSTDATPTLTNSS
T4 sequence (Q16659 whole entry): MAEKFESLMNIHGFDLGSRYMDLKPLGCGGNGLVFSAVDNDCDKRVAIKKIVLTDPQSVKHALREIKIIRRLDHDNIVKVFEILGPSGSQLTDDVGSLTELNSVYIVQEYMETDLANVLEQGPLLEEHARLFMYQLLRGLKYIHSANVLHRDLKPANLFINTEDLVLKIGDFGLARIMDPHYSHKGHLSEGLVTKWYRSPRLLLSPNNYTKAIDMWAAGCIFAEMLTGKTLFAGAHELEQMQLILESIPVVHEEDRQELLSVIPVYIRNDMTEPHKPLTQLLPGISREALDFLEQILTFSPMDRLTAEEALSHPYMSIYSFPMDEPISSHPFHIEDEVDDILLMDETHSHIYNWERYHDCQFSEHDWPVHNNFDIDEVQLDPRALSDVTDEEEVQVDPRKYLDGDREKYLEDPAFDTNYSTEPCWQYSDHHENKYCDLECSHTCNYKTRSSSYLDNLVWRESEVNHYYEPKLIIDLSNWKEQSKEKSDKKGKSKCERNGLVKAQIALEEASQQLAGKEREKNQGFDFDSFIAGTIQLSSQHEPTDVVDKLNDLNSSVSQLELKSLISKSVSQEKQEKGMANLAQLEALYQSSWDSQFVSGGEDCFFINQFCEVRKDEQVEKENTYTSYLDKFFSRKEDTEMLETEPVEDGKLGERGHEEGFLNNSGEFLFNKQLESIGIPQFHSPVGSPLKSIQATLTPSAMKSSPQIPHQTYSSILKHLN
T5 sequence (Q96RR4 whole entry): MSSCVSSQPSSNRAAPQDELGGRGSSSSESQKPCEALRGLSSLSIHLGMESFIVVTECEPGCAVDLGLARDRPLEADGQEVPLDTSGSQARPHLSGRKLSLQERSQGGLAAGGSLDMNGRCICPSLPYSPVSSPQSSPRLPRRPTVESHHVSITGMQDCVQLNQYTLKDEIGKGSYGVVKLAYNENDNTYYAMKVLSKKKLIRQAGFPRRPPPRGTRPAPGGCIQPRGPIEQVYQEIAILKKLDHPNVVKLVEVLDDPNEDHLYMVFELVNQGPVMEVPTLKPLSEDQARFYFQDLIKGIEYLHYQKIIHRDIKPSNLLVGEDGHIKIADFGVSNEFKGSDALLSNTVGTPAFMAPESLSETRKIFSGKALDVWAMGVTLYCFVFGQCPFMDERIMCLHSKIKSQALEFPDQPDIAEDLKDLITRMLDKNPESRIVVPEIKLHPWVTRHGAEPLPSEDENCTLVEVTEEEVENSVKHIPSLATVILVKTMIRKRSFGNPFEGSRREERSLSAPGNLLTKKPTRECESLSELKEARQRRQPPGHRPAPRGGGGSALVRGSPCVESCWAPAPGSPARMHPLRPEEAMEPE

For the compound `CNc1nc(Nc2ccc(S(=O)(=O)N3CCC(N4CCOCC4)CC3)cc2OC)nc2[nH]cc(Cl)c12` [Compound 12, 5-chloro-N2-(2-methoxy-4-((4-morpholinopiperidin-1-yl)sulfonyl)phenyl)-N4-methyl-7H-pyrrolo[2,3-d]pyrimidine-2,4-diamine], the remaining binding at 1 µM amounted to 100% in test [1] (RPS6KA4(Kin.Dom.1-N-terminal)); 13% in test [1] (RPS6KA4(Kin.Dom.2-C-terminal)); 91% in [2]; 100% in test [3]; 100% in test [4]; 68% in test [5]. Besides, the remaining binding at 1 µM is 37% in test [6]; 96% in test [7] (RSK4(Kin.Dom.1-N-terminal)); 99% in test [7] (RSK4(Kin.Dom.2-C-terminal)); 64% in [8]; 6.1% in [9].
For `CNc1nc(Nc2ccc(P3(=O)CCN(C4CCOCC4)CC3)cc2OC)nc2[nH]cc(Cl)c12` [Compound 77, 4-(4-((5-chloro-4-(methylamino)-7H-pyrrolo[2,3-d]pyrimidin-2-yl)amino)-3-methoxyphenyl)-1-(tetrahydro-2H-pyran-4-yl)-1,4-azaphosphinane 4-oxide], the remaining binding at 1 µM stood at 100% in test [1] (RPS6KA4(Kin.Dom.1-N-terminal)); 0.7% in test [1] (RPS6KA4(Kin.Dom.2-C-terminal)); 90% in test [2]; 100% in test [3]; 99% in [4]; 25% in test [5]. For the same compound, the remaining binding at 1 µM is 14% in [6]; 92% in test [7] (RSK4(Kin.Dom.1-N-terminal)); 77% in [7] (RSK4(Kin.Dom.2-C-terminal)); 70% in [8]; 13% in [9].
Regarding `CNc1nc(Nc2ccc(C(=O)N3CCC(N4CCOCC4)CC3)c3c2OCO3)nc2[nH]cc(Cl)c12` [Compound 75, (7-((5-chloro-4-(methylamino)-7H-pyrrolo[2,3-d]pyrimidin-2-yl)amino)benzo[d][1,3]dioxol-4-yl)(4-morpholinopiperidin-1-yl)methanone], the remaining binding at 1 µM is 89% in test [1] (RPS6KA4(Kin.Dom.1-N-terminal)); 3.9% in test [1] (RPS6KA4(Kin.Dom.2-C-terminal)); 87% in test [2]; 45% in [3]; 91% in test [4]; 42% in test [5]. In addition, the remaining binding at 1 µM is 2.2% in test [6]; 86% in test [7] (RSK4(Kin.Dom.1-N-terminal)); 100% in [7] (RSK4(Kin.Dom.2-C-terminal)); 72% in test [8]; 0% in [9].
